Data reported in PMC6014988, “Precision therapeutic targeting of human cancer cell motility” (Nature Communications, 2018).

How the values were obtained:
MKK4 = MKK4 (Homo sapiens, UniProt P45985); assay: MKK4 in vitro kinase assay; assay type: biochemical
Description: (§1) MEK4/MKK4/MAP2K4 in vitro kinase assay was performed as described by us[45].
(§2) Supplementary Figure 9. […] (a) Depiction of […]
(§3) established MKK4 pathway regulating human PCa cell metastasis. […]
(§4) to MKK4, as measured by fluorescence-based thermal shift assay. Values are the mean±SD (of N=2 replicates) increase in melting temperature (ΔTm) of purified recombinant MKK4 induced by the indicated concentrations of KBU2046 or genistein. […]
(§5) in an in vitro kinase assay. The indicated concentrations of KBU2046 were added to recombinant activated MKK4, and its ability to phosphorylate kinase dead p38α MAPK (K53A) was measured by Western blot for total (p38 MAPK) and phosphorylated (pp38 MAPK) forms of […]
(§6) HSP27 in cells. PC3-M cells were pre-treated for 24 hours with 50 µM KBU2046 or genistein, as indicated, then with TGFβ, and Western blot performed. All findings are from a single experiment, with similar findings in identical separate experiments, repeated at least once. […]

[1] = tested on: p38 MAPK and HSP27 phosphorylation; assay: Phosphorylation of p38 MAPK and HSP27 in PC3-M cells, Western blot; assay type: cell-based, human; conditions: 50 µM, 24 hours, then TGFβ
Description: as §2, §3, §4, §5, §6

HSP90β = biological target: T1, HSP90β (Homo sapiens, UniProt P08238); assay: Biophysical binding assays and DARTS, isolated HSP90β; conditions: ITC, thermal shift, biolayer interferometry, dynamic light scattering, DARTS
T1 construct: made in house; host or cells: Rosetta BL-21 E. coli
Description: Fluorescent thermal shift, isothermal titration calorimetry, and biolayer interferometry assays[46] were all performed as described by us using MEK4EE (37-399, S257E, T261E) cloned into pMCSG7 and KRX Competent E. coli cells (Promega Inc.) and above denoted full-length HSP90B and CDC37 vectors and Rosetta BL-21 and BL-21 DE-3 competent E. coli cells, respectively. DARTS assays were conducted as described, using equimolar amounts of CDC37 and HSP90β, thermolysin digestion, and silver stain visualization (ProteoSilver Silver Stain Kit, Sigma-Aldrich).
Supplementary Figure 14. […] Studies used purified […]
recombinant HSP90β or CDC37. Fluorescent thermal shift 5, isothermal titration calorimetry 6, […]
evidence of KBU2046 binding to either HSP90β or CDC37 (data not shown). For DARTS assay, HSP90β or CDC37 were individually pre-incubated with KBU2046, thermolysin added, and reaction products were separated by SDS PAGE and visualized by silver stain (depicted above).
NTco – no thermolysin control. However, when the DARTS assay was conducted with both HSP90β and CDC37 present, KBU2046 protected both proteins from degradation in a concentration-dependent manner (see manuscript Fig 5A).
(also on this page, place not known: HSP90 Ntco 0 0.001 0.01 0.1 1.0 10 µM KBU2046, thermolysin NTco thermolysin CDC37)
(§7) (1 picture or pasted object on this page, not shown here)

1542CPTX = assay: Three-day MTT cell growth inhibition assay, 1542CPTX; assay type: cell-based, human; conditions: Homo sapiens, 72 h, 3 days
[2] = as above; assay type: cell-based, human; conditions: human, 1542CPTX cells
RAF1 = assay: In vitro kinase assay of RAF1, HSP90β and CDC37; assay type: biochemical; conditions: purified recombinant RAF1, HSP90β, CDC37
Description: as §1

[3] = tested on: protein phosphorylation in PC3-M and PC3 cells; assay: KinomeView phospho-motif antibody screen; assay type: cell-based, human; conditions: 10 µM, 3 days, ± TGFβ
Description: The Kinoview™ and PhosphoScan™ assays were performed by Cell Signaling Technology Inc.
Supplementary Figure 10. Proteomic analysis of the effects of KBU2046 on the kinome. (a-c) Screening for effects on the kinome. PC3-M cells were pre-treated with 10 µM KBU2046, genistein or vehicle control for 3 days, then with ± TGFβ, as indicated. Resultant cell lysate, as well as lysate from tumors from mice treated with 150 mg/kg KBU2046 or control mice (from manuscript Figure 2a), were then probed with the KinomeView® panel of antibodies by Western blot. In instances where KBU2046 was inhibiting protein phosphorylation in cells and in tumors, a repeat experiment of PC3-M cells was conducted (Experiment #2). In addition to including PC3-M cells, as in Experiment #1, Experiment #2 expanded to examine effects on PC3 cells. (a) The identification of an 83 kDa band of interest (red arrows). This constitutes the only change […]
as in tumor tissue. […] (c) All […]
other Western blots of phospho-motif antibodies that were evaluated on initial screen. NI = tumor not informative; this denotes a tumor sample that yielded an abnormal coomassie blue staining pattern. Data from this sample was therefore not considered further.
(also on this page, place not known: cat #C32G12; tPE cat #2981; sRXY, FXs NI NI cat #2351; tXR cat #23C8D12; RXRXX(s/t) NI NI)
as §7

[4] = Systemic off-target effects, histologic examination after 35 days; assay type: in vivo
Description: Histologic examination of tissue: Organs of athymic male mice stained with hematoxylin and eosin, trichrome, or giemsa were microscopically examined by a mouse pathologist (L.L.) in a blinded fashion, and toxicity scored using an established semi-quantitative histological scoring system[38] (Supplementary Fig. 8). The following clinical chemistry parameters were measured in blood of CD1 male and female mice by Charles River Research Animal Diagnostic Services: cholesterol, triglycerides, alanine aminotransferase, aspartate aminotransferase, total bilirubin, glucose, phosphorus, total protein, calcium, blood urea nitrogen (BUN), creatinine, albumin, Na, K, Cl, white blood cells (with differential), red blood cells, hemoglobin, and platelets.
Supplementary Figure 7. KBU2046 treatment is not associated with systemic off-target effects. For histologic examination of tissue, cohorts of N=5 male 6-8 week old Balb/c athymic […]
KBU2046 as described in manuscript Figure 2a. […] Organs were examined for damage using a semi-quantitative histological scoring system, as described 4. […]

T1 sequence (P08238 whole entry): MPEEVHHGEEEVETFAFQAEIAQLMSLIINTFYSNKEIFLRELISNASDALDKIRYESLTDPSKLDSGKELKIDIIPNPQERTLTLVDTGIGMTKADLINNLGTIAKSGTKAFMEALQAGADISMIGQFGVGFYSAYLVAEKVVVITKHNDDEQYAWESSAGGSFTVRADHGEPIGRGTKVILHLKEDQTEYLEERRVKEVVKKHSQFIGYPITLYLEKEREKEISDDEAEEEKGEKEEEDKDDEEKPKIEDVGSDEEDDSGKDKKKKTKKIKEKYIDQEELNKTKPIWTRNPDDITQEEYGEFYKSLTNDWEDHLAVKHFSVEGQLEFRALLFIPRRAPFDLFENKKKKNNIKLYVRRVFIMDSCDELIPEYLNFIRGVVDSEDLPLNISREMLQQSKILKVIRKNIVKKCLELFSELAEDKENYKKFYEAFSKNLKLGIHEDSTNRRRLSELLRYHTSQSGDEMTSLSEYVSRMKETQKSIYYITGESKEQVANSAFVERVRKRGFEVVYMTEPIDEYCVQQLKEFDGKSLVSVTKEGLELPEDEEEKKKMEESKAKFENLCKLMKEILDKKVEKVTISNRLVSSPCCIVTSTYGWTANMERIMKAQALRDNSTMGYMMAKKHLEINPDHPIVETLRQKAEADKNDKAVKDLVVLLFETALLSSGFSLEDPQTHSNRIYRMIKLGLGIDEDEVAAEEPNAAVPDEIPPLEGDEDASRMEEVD
Sequence of MKK4 (P45985 whole entry): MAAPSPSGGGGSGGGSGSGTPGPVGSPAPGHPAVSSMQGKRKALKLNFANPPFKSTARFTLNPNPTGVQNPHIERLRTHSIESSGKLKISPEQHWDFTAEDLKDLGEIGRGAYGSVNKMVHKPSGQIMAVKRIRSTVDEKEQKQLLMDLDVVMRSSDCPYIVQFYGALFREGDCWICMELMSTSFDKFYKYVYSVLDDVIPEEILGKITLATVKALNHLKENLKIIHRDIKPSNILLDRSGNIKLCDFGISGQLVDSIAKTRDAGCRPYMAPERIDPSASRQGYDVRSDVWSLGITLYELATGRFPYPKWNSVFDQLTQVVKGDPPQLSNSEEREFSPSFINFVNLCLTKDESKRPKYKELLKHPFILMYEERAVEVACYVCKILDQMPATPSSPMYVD

## O=C1c2ccccc2OCC1c1ccc(F)cc1 (racemic) [KBU2046, (±)-3(4-fluorophenyl)chroman-4-one]
MKK4
  inhibition of MKK4 kinase activity: nor inhibit its kinase activity
[1]
  downstream phosphorylation of p38 MAPK and HSP27: did not inhibit downstream phosphorylation
HSP90β
  binding to HSP90β: no evidence of KBU2046 binding
1542CPTX
  IC20: > 50 µM
  IC50: > 50 µM
[2]
  viability at 3 days, 50 µM: 104%
RAF1
  phosphorylation of RAF1 Ser338: decreased phosphorylation of RAF1’s Ser338 activation motif
[3]
  changes in protein phosphorylation: only a single change
[4]; athymic mice, KBU2046 in chow, 35 days
  organ damage, histological scoring: No organ damage was observed
[4]; oral doses up to 150 mg/kg, up to 35 days
  toxicity after oral dosing: no observed toxicity
